Measured values taken from US10125095B2, “Abscisic acid derivative” (NATIONAL UNIVERSITY CORPORATION SHIZUOKA UNIVERSITY, priority 2014, dated 2018).

Key:
[1] = test system: thale cress (Arabidopsis thaliana, Col-0) seedlings; assay: Thale cress growth test; assay type: in vivo; settings: sprayed once a day, three weeks' culture
Method: Seeds of thale cress (Arabidopsis thaliana, Col-0) were sequentially immersed for 1 minute respectively in 500 μL of an aqueous solution of 5% bleach+1% SDS, 500 μL of a 70% aqueous solution of ethanol and 500 μL of a 70% aqueous solution of ethanol, washed five times in 1 mL of sterilized water, and then suspended in a 0.1% aqueous solution of agar. 25 mL each of germination medium (containing ½ MS medium inorganic salts) sterilized in an autoclave was added to a sterilized plastic petri dish, in which 60 to 80 seeds suspended in the 0.1% aqueous solution of agar were planted and, in a dark place, the seeds were vernilized at 4° C. for 3 days. The seeds were cultured at 22° C. under continuous light for 10 days. 40 g […] of sterilized soil (organic culture soil:vermiculite=1:1) was added to a plastic pot (50 mm×50 mm×50 mm, 35 mm bottom surface×35 mm height). Six plastic pots thus provided were placed in a 3000 mL-tray, 300 mL (depth 10 mm) of an aqueous solution of 1000-fold diluted HYPONeX (tradename (registered trademark), product of HYPONeX JAPAN CORP., LTD.) was added thereto and five roots each of thale cress seedlings were transplanted from the plastic petri dish. The seedlings were cultured at 22° C. under conditions of 16 hour light period-8 hour dark period, and 1 mL of an aqueous solution (prepared so as the final concentration of the compound of Example 7 to be 50 μM) of 0.1% DMSO (containing the compound of Example 7)+0.1% Approach BI (tradename (registered trademark), product of Kao Corporation) was sprayed once a day. Further, 300 mL of an aqueous solution of 2000-fold diluted HYPONeX was added every week. The same treatment as above was carried out using the compound of Comparative Example 1. Note that the seedlings, to which 1 mL of an aqueous solution of 0.1% DMSO+0.1% Approach BI without containing the above compound was sprayed once a day, were used as controls. […]

[2] = molecular target: T1, PYL9 (Arabidopsis thaliana, UniProt Q84MC7); assay: Protein dephosphorylation enzyme activity test, PYL9; assay type: biochemical, thale cress; settings: control = 100%
T1 construct: 6xHis (N); made in house; host or cells: Escherichia coli BL21-codonplus(DE3)-RIPL (PYL); BL21(DE3)pLysS (HAB1)
T1 sequence (Q84MC7 1-187): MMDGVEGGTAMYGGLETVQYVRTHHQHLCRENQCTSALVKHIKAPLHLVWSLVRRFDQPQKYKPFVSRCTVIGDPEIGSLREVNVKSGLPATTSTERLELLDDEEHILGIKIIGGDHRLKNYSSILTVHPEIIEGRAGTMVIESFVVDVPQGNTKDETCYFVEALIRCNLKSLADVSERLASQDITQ
Method: (§1) A plasmid (pGex-2T-GST-HAB1 or pET28-6×His-PYL) encoded with PYR/PYL/RCAR proteins (PYL, abscisic acid receptor) or protein dephosphorylation enzyme HAB1 of thale cress was transformed to Escherichia coli (HAB1:BL21(DE3)pLysS, PYL:BL21-codonplus(DE3)-RIPL). Isopropyl-β-thiogalactopyranoside was added to the culture broth, which had been subjected to pre-culture (30° C., 180 rpm, 15 hours) and main culture (30° C., 180 rpm, 4 hours), and the protein-expressed (16° C., 150 rpm, 18 hours) crude enzyme solution was purified using FPLC thereby preparing the recombined PYL (PYR1, PYL1-6, PYL8-10) and HAB1. β-Mercaptoethanol, a manganese chloride aqueous solution, HAB1, PYL, a solution of the sample in dimethylsulfoxide and ultrapure water were sequentially added to a 96-well plate, allowed to stand at 22° C. for 30 minutes. Subsequently p-nitrophenylphosphate, which is the artificial substrate of HAB1, was added thereto to start the reaction, and the plate was placed in a microplate reader (TECAN, Infinite™ N200 NanoQuant). The absorbance at 405 nm due to p-nitrophenol, which is the hydrolysate of p-nitrophenylphosphate, was measured 3 minutes later from the reaction initiation, and HAB1 activity was calculated by the following formula (2). Note that the fraction to which only dimethylsulfoxide was added was considered to be the control and the activity thereof was defined as 100%. […] HAB1 specific activity (%)=Absorbance when sample was added/Absorbance of control×100 (2)

[3] = molecular target: T2, HAB1 (Arabidopsis thaliana, UniProt Q9CAJ0); assay: Protein dephosphorylation enzyme activity test, no receptor; assay type: biochemical, thale cress; settings: control = 100%
T2 construct: GST (N); made in house; host or cells: Escherichia coli BL21(DE3)pLysS
T2 sequence (Q9CAJ0 23-511): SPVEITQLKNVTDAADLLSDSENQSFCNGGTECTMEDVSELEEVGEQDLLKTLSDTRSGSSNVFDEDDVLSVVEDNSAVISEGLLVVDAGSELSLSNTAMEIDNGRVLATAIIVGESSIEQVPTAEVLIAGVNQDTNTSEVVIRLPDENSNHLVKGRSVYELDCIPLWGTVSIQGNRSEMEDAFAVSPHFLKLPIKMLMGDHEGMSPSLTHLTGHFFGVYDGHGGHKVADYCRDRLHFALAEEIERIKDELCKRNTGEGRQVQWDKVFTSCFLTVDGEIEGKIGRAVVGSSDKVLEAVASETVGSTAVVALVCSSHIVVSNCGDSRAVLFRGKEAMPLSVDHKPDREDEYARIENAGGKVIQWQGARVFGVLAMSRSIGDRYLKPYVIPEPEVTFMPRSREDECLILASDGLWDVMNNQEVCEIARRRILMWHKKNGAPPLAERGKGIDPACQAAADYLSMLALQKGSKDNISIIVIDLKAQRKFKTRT
Method: as §1

[4] = test system: bok choy (Brassica rapa var. chinensis) seeds; assay: Bok choy seed germination test; assay type: in vivo; settings: co-applied with ABA
[5] = test system: lettuce (Lactuca saliva) seeds; assay: Lettuce seed germination test; assay type: in vivo; settings: co-applied with ABA

CC1=C[C@@H](OCC#Cc2ccc(C)cc2)CC(C)(C)[C@@]1(O)/C=C/C(C)=C\C(=O)O [Example 7]
Growth suppression effect of ABA on thale cress ([1]; 50 μM compound co-applied with 5 μM ABA): the growth suppression effect by ABA was notably improved and the thale cress growth was recovered to the same extent as the controls

CC1=CC(=O)CC(C)(C)[C@@]1(O)/C=C/C(C)=C\C(=O)O [ABA, abscisic acid]
Growth of thale cress ([1]; only ABA, 5 μM): the growth of thale cress was notably suppressed
HAB1 Specific activity (%) PYL9 ([2]; sample alone): 31%
HAB1 Specific activity (%) None ([3]; sample alone): 97%

CC1=C[C@@H](OCC#Cc2ccccc2)CC(C)(C)[C@@]1(O)/C=C/C(C)=C\C(=O)O [Example 1, (2Z,4E)-5-((1S,4S)-1-hydroxy-2,6,6-trimethyl-4-((3-phenylprop-2-yn-1-yl)oxy)cyclohex-2-en-1-yl)-3-methylpenta-2,4-dienoic acid]
HAB1 Specific activity (%) PYL9 ([2]; ABA + compound): 90%
HAB1 Specific activity (%) PYL9 ([2]; sample alone): 111%
Recovery of seed germination rate decreased by ABA [4]: recovered the seed germination rates once decreased by ABA
Recovery of seed germination rate decreased by ABA [5]: recovered the seed germination rates once decreased by ABA
HAB1 Specific activity (%) None ([3]; ABA + compound): 81%
HAB1 Specific activity (%) None ([3]; sample alone): 83.8%
